pIC50: −log10 of the molar value. Like-named read-outs stand apart in the source and are kept apart here.
Assays:
NgTet1 [1] = molecular target: T1, NgTet1 (Naegleria gruberi, UniProt D2W6T1); type: biochemical
T1 construct: His6-tagged full-length Naegleria gruberi NgTet1 (321 a. a.) protein with a thrombin cleavage site; made in house; host or cells: E. coli BL21(DE3)
T1 sequence (D2W6T1 1-321): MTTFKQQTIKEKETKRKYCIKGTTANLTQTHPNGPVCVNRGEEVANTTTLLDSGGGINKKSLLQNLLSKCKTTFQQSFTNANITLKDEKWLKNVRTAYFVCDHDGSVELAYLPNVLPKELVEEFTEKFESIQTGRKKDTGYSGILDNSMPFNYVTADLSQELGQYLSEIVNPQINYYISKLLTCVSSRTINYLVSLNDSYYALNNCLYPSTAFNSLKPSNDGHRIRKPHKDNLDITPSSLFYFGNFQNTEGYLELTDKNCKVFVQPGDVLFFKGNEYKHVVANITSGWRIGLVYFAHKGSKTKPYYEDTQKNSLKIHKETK
Method: Double-stranded 12 bp DNA oligomers were added at a final concentration of 20 µM. […]
Double-stranded DNA oligomers were added at a final concentration of 20 µM. […]
All ^1H NMR spectra were recorded at 25 °C using D2O as a reference for internal deuterium lock on a Bruker Avance III 700 MHz equipped with an inverse TCI cryoprobe in 3 or 5 mm diameter tubes with a total sample volume of 160 or 565 μL, respectively. The water signal was reduced using Perfect Echo excitation sculpting suppression. Chemical shifts are reported in ppm relative to D2O (δH = 4.70 ppm).
Spectrometer settings were determined using a control sample containing all reaction components excluding enzyme. TET enzyme was added to an identical sample, and the resulting assay mixture was transferred to an NMR tube before deposition into the instrument. […] Spectrum recordings were carried out consecutively without delay. Data were processed using automated routines on MestReNova v14.2.0; signals of interest were integrated with absolute intensity scaling. ^1H NMR time courses reported in figures are representative results from two or three independent replicates.

NgTet1 [2] = molecular target: T1, NgTet1; test: AlphaScreen competition assay with biotinylated 5mC dsDNA; type: binding; conditions: 100 nM NgTet1, 50 nM 5mC dsDNA
Method: (§1) AlphaScreen™ Histidine (Nickel Chelate) Detection Kit was used to evaluate displacement of […] (^5mC dsDNA)[33],[34]. Competitor DNA oligomers in assay buffer were manually dispensed onto 384-well ProxiPlates (5 μL) in a 2-fold dilution series. His6-tagged NgTet1 or TET2CDΔLCI in assay buffer was added (5 μL), and the mixture was pre-incubated with the competitor DNA at room temperature for 10 min. Cofactors and biotinylated ^5mC dsDNA in assay buffer were added (5 μL), and the mixture was further incubated at room temperature for 10 min. A mixture of AlphaScreen beads (1:62.5 dilution) in assay buffer was added (5 μL), and the full mixture was incubated at room temperature for 1 h. The final mixtures (20 μL) contained 100 nM NgTet1 (50 nM ^5mC dsDNA) or 12.5 nM TET2CDΔLCI (12.5 nM ^5mC dsDNA), 50 μM sodium L-ascorbate, 5 μM (NH4)2Fe(SO4)2, and 5 μM disodium NOG in assay buffer (50 mM HEPES [pH 7.3], 150 mM NaCl, 0.1% v/v BSA, 0.01% v/v Tween® 20). For the assay interference counter screen, His6-tagged TET protein and biotinylated ^5mC dsDNA were replaced with 1.6 nM biotinylated His6 peptide. Chemiluminescence was measured on a PHERAstar FS/FSX (BMG Labtech) equipped with an AlphaScreen 680 570 module. All AlphaScreen bead manipulations were performed under subdued lighting. Inhibition data was normalised to reactions containing no competitor and fitted using “log(inhibitor) vs. response - Variable slope (four parameters)” non-linear regression model on GraphPad Prism 5. […]
(§2) Fig. S5 TETs bind to DNA in a sequence- and modification-independent manner. A binding assay between a biotinylated 5mC dsDNA oligomer and His6-tagged TET was developed using AlphaScreen Histidine (Nickel Chelate) assay. […] Conditions: a 100 nM NgTet1 (50 nM 5mC dsDNA), b 12.5 nM TET2CDΔLCI (12.5 nM 5mC dsDNA), c 1.6 nM biotinylated His6 peptide. Each assay was supplemented with 50 μM sodium L-ascorbate, 5 μM (NH4)2Fe(SO4)2, and 5 μM disodium NOG. Data shown as the mean of three to four experimental replicates (n = 3–4; mean ± SD); tabulated data reported as the mean of two independent replicates (n = 2).

TET2CDΔLCI = molecular target: T2, TET2CDΔLCI (Homo sapiens, UniProt Q6N021); test: as above; type: binding; conditions: 12.5 nM TET2CDΔLCI, 12.5 nM 5mC dsDNA
T2 construct: FLAG-[thrombin cleavage site]-SUMO (N); made in house; host or cells: E. coli
Method: as §1, §2

AT DNA: double-stranded self-complementary 5'-ACC ACA TGT GGT-3', CpG replaced by ApT (DNA ACCACATGTGGT; DNA, backbone and methylation of C not given here; self-complementary duplex)
V0 NgTet1 (NgTet1 [1]; 20 µM DNA, 100 μM 2OG, 5 μM NgTet1): 0.82 µM/min | succinate (NgTet1 [1]; n = 1, time (min) 5HC DNA 5.9, AT DNA 5.81667, 5mC DNA 5.78333): 4.127 µM | succinate (NgTet1 [1]; n = 1, time (min) 5HC DNA 8.98333, AT DNA 8.9, 5mC DNA 8.86667): 6.717 µM | succinate (NgTet1 [1]; n = 1, time (min) 5HC DNA 12.0667, AT DNA 11.9833, 5mC DNA 11.95): 10.1801 µM | succinate (NgTet1 [1]; n = 1, time (min) 5HC DNA 15.1333, AT DNA 15.0667, 5mC DNA 15.0333): 12.0396 µM | succinate (NgTet1 [1]; n = 1, time (min) 5HC DNA 18.2167, AT DNA 18.1333, 5mC DNA 18.1167): 14.7705 µM | succinate (NgTet1 [1]; n = 1, time (min) 5HC DNA 21.3667, AT DNA 21.2333, 5mC DNA 21.2): 16.3534 µM | succinate (NgTet1 [1]; n = 1, time (min) 5HC DNA 24.45, AT DNA 24.3167, 5mC DNA 24.2833): 18.4118 µM | succinate (NgTet1 [1]; n = 1, time (min) 5HC DNA 27.5333, AT DNA 27.3833, 5mC DNA 27.3667): 20.2156 µM | succinate (NgTet1 [1]; n = 1, time (min) 5HC DNA 30.6, AT DNA 30.4667, 5mC DNA 30.45): 21.7474 µM | succinate (NgTet1 [1]; n = 1, time (min) 5HC DNA 33.6833, AT DNA 33.55, 5mC DNA 33.5333): 22.2243 µM | succinate (NgTet1 [1]; n = 1, time (min) 5HC DNA 36.7667, AT DNA 36.6333, 5mC DNA 36.6167): 23.7117 µM | succinate (NgTet1 [1]; n = 1, time (min) 5HC DNA 39.85, AT DNA 39.7167, 5mC DNA 39.7): 24.5115 µM | succinate (NgTet1 [1]; n = 1, time (min) 5HC DNA 42.9333, AT DNA 42.8, 5mC DNA 42.7833): 26.1396 µM | succinate (NgTet1 [1]; n = 1, time (min) 5HC DNA 46.0167, AT DNA 45.8833, 5mC DNA 45.8667): 27.6473 µM | succinate (NgTet1 [1]; n = 1, time (min) 5HC DNA 49.0833, AT DNA 48.9667, 5mC DNA 48.95): 28.232 µM | succinate (NgTet1 [1]; n = 1, time (min) 5HC DNA 52.1667, AT DNA 52.05, 5mC DNA 52.0333): 29.053 µM | succinate (NgTet1 [1]; n = 1, time (min) 5HC DNA 55.25, AT DNA 55.1167, 5mC DNA 55.1167): 29.9694 µM | succinate (NgTet1 [1]; n = 1, time (min) 5HC DNA 58.3333, AT DNA 58.2, 5mC DNA 58.2): 30.8156 µM | succinate (NgTet1 [1]; n = 1, time (min) 5HC DNA 61.4, AT DNA 61.2833, 5mC DNA 61.2833): 32.4581 µM | succinate (NgTet1 [1]; n = 1, time (min) 5HC DNA 64.4833, AT DNA 64.3833, 5mC DNA 64.35): 32.8043 µM | succinate (NgTet1 [1]; n = 2, time (min) 5HC DNA 5.81667, AT DNA 5.61667, 5mC DNA 6.08333): 3.542 µM | succinate (NgTet1 [1]; n = 2, time (min) 5HC DNA 8.88333, AT DNA 8.7, 5mC DNA 9.16667): 5.909 µM | succinate (NgTet1 [1]; n = 2, time (min) 5HC DNA 12.0333, AT DNA 11.7833, 5mC DNA 12.25): 8.271 µM | succinate (NgTet1 [1]; n = 2, time (min) 5HC DNA 15.1167, AT DNA 14.8667, 5mC DNA 15.3167): 11.2722 µM | succinate (NgTet1 [1]; n = 2, time (min) 5HC DNA 18.1833, AT DNA 17.9333, 5mC DNA 18.4): 12.8044 µM | succinate (NgTet1 [1]; n = 2, time (min) 5HC DNA 21.2667, AT DNA 21.0167, 5mC DNA 21.4833): 14.5697 µM | succinate (NgTet1 [1]; n = 2, time (min) 5HC DNA 24.35, AT DNA 24.1, 5mC DNA 24.5667): 16.6119 µM | succinate (NgTet1 [1]; n = 2, time (min) 5HC DNA 27.4333, AT DNA 27.1833, 5mC DNA 27.65): 17.8887 µM | succinate (NgTet1 [1]; n = 2, time (min) 5HC DNA 30.5167, AT DNA 30.2667, 5mC DNA 30.7333): 19.2454 µM | succinate (NgTet1 [1]; n = 2, time (min) 5HC DNA 33.6, AT DNA 33.35, 5mC DNA 33.8167): 20.9427 µM | succinate (NgTet1 [1]; n = 2, time (min) 5HC DNA 36.6833, AT DNA 36.4333, 5mC DNA 36.9): 21.6807 µM | succinate (NgTet1 [1]; n = 2, time (min) 5HC DNA 39.7667, AT DNA 39.5167, 5mC DNA 39.9833): 23.2699 µM | succinate (NgTet1 [1]; n = 2, time (min) 5HC DNA 42.8333, AT DNA 42.6, 5mC DNA 43.0667): 23.7997 µM | succinate (NgTet1 [1]; n = 2, time (min) 5HC DNA 45.9167, AT DNA 45.6833, 5mC DNA 46.15): 25.1342 µM | succinate (NgTet1 [1]; n = 2, time (min) 5HC DNA 49, AT DNA 48.7667, 5mC DNA 49.2333): 26.0623 µM | succinate (NgTet1 [1]; n = 2, time (min) 5HC DNA 52.0833, AT DNA 51.85, 5mC DNA 52.3167): 26.9664 µM | succinate (NgTet1 [1]; n = 2, time (min) 5HC DNA 55.1667, AT DNA 54.9333, 5mC DNA 55.4): 27.9222 µM | succinate (NgTet1 [1]; n = 2, time (min) 5HC DNA 58.25, AT DNA 58.0167, 5mC DNA 58.4833): 28.2598 µM | succinate (NgTet1 [1]; n = 2, time (min) 5HC DNA 61.3333, AT DNA 61.1, 5mC DNA 61.5667): 29.5623 µM | succinate (NgTet1 [1]; n = 2, time (min) 5HC DNA 64.4167, AT DNA 64.1667, 5mC DNA 64.65): 30.2392 µM | Relative V0 NgTet1 (NgTet1 [1]; relative to reactions without DNA): 2.3 | pIC50 (NgTet1 [2]): 4.25 | competition pIC50 NgTet1 (NgTet1 [2]; n = 2): 4.25 | pIC50 (TET2CDΔLCI): 5.34 | competition pIC50 TET2CDΔLCI (TET2CDΔLCI; n = 2): 5.34

Reference: PMC11662004 (Communications Chemistry, 2024)
